Experimental data: patent US20100254965A1, “Adenosine Signaling in Diagnosis, Treatment, and Prevention of Priapism and Erectile Dysfunction” (BOARD OF REGENTS ,THE UNIVERSITY OF TEXAS SYSTEM, priority 2006, published 2010)

System: corpus cavernosal smooth muscle cells (CCSM)
Test: cGMP levels in primary CCSM / PVSM
Type: cell-based, mouse
Settings: CCSM/PVSM of both wild type and A2BR deficient mice, 10 min
Description: Results for wild-type and A2B^−/− mouse were statistically significant, p<0.01.
FIG. 18. Adenosine stimulated both cAMP and cGMP induction in corpus cavernosal smooth muscle cells (CCSM) via A2BR activation. (a) Adenosine receptor expression profile in purified primary CCSM. CCSM were purified from adult mouse penes. […] (b) CCSM were isolated and cultured from mouse penes. The cells were switched to serum-free medium and treated with different concentrations of adenosine with or without A2BR antagonist (MRS1706-10 μM), A2AR antagonist (ZM241385-50 nM) or A2AR agonist (CGS-21680-10 μM) alone for 10 min. Then cellular extracts were collected and cAMP levels were measured using an ELISA kit. The data represent mean±SE. *p<0.05, adenosine treated versus the untreated; **p<0.05, adenosine plus MRS1706 or ZM241385 versus the adenosine treated. (c) CCSM were isolated from penes of the wild type and A2BR-deficient mice and cultured with or without adenosine (100 μM), NECA (10 μM), a potent adenosine receptor agonist, forskolin (10 μM), an adenylyl cyclase agonist. […] N=4. *p<0.05, adenosine, forskolin and NECA treated versus the untreated control. (d) Corpus cavernosal strips (CCS) were isolated from wild type and A2BR-deficient mice and treated with different concentrations of adenosine in the presence or absence of L-NAME (100 μM) or MRS1706 (10 μM). 10 min after treatment, cellular extracts were collected and cGMP levels were measured by using a commercial enzyme immunoassay kit (Amersham Pharmacia). Data are expressed as mean±SE. *p<0.05, adenosine treated versus the control; **p<0.05, adenosine treated with MRS1706 versus the adenosine treated; ***p<0.05, CCS of A2BR-deficient mice treated with adenosine versus the CCS of wild type mice treated with adenosine. N=6-7. (e) CCSM were isolated from wild type and A2BR deficient mice and cultured with or without adenosine (100 μM), NECA (10 μM), a potent adenosine receptor agonist, forskolin (10 μM), an adenylyl cyclase agonist, or diethylamine-NONOate (DEA/NO) (10 μM). […] N=4. *p<0.05, DEA/NO treated versus to the untreated control. (f) Both cAMP and cGMP induction contribute to adenosine-mediated decreased PE-induced phosphorylation of myosin light chain (MLC). CCSM and CCS were isolated and cultured with the treatment of phenylephrine (PE-10 μM) in the presence or absence of adenosine (100 μM) or L-NAME (100 μM). 10 min after treatment, cellular extracts were isolated and western blot analysis were performed. The total MLC and phosphorylated MLC at S20 were detected by specific antibodies.
Isolation of primary corpus cavernosal smooth muscle cells (CCSM). Corpus cavernosum tissues were dissected as described above. Cavernosal tissue was washed in PBS and minced into […] pieces. Segments were incubated in 5-10 ml enzyme solutions containing 0.02% collagenase A (0.272 U/mg protein, Roche, Mannheim, Germany) and 0.5% elastase (3.73 U/mg protein, Cell system, St Katharinen, Germany) in a 75 mm flask at 37° C. for 6 hours. Enzymatic digestion was terminated by adding 10 ml DMEM supplemented with 10% fetal calf serum (FCS). […]
Tissue and corpus cavernosum smooth muscle cell (CCSM) cAMP and cGMP measurement. Quantitative assays for cAMP and cGMP were performed by using a commercial enzyme immunoassay kit (Amersham Pharmacia). […]

## Nc1ncnc2c1ncn2[C@@H]1O[C@H](CO)[C@@H](O)[C@H]1O [adenosine]
  cGMP levels: lack of significant differences in cGMP production
Listed as Adenosine
  cGMP levels: had no effect
